In ChEMBL document CHEMBL4732023, “Using NMR to identify binding regions for N and C-terminal Hsp90 inhibitors using Hsp90 domains” (RSC Med Chem, 2021):
≈ marks a conversion by molar mass, not a printed value. Calls of active or inactive are those of the source. No cut-off for these calls is given here. Where a SMILES comes first, the peptide text is derived from it. [ ]: non-standard residue; d: D form. dAla(4-thiazolyl) = N[C@H](Cc1cscn1)C(=O)O; dDip = N[C@@H](C(=O)O)C(c1ccccc1)c1ccccc1; NMeV = CN[C@H](C(=O)O)C(C)C

Columns and labels:
[1] = target: T1, Heat shock protein HSP90 (Homo sapiens, UniProt P07900+P08238); assay: Binding affinity to HSP90 C-terminal domain (unknown origin) by biochemical assay; type: protein assay
[2] = target: T1, Heat shock protein HSP90; assay: Binding affinity to recombinant His6-tagged HSP90 C-domain (unknown origin) (553 to 732 residues) expressed in Escherichia coli BL21 (DE3) (DNAY) cells assessed as dissociation constant by 15N-1H TROSY-HSQC NMR spectroscopy
[3] = Solubility of compound in water; type: physicochemical; details: buffer
[4] = target: T1, Heat shock protein HSP90; assay: Binding affinity to recombinant His6-tagged HSP90 C-domain (unknown origin) (553 to 732 residues) expressed in Escherichia coli BL21 (DE3) (DNAY) cells assessed as chemical shift perturbation at protein to compound ratio of 1:1.6 by 15N-1H TROSY-HSQC NMR spectroscopy

Structure (SMILES) | Kd [1] | Activity [2] | solubility [3] | Kd [2] | Activity [4]
COc1cc([C@H]2Oc3cc([C@H]4Oc5cc(O)cc(O)c5C(=O)[C@@H]4O)ccc3O[C@@H]2CO)ccc1O [SILYBIN A] | 500 µM | – | – | – | –
CC(C)C[C@@H]1NC(=O)[C@H](C(C)C)N(C)C(=O)[C@@H](CC(C)C)NC(=O)[C@@H](Cc2cscn2)NC(=O)[C@@H](C(c2ccccc2)c2ccccc2)NC1=O (cyclo(L[dDip][dAla(4-thiazolyl)][dL][NMeV])) | – | Active | 200 µM (≈ 143 µg/mL) | – | –
NCCCC[C@@H]1NC(=O)[C@H](Cc2ccccc2)NC(=O)[C@H](Cc2ccc(O)cc2)NC(=O)[C@H](CO)NC(=O)[C@H](CC(N)=O)NC1=O (cyclo(KNSYF)) | 45 µM | – | – | 19.8 µM | Active
